Results reported in paper PMC8151276, “An Integrated Approach toward NanoBRET Tracers for Analysis of GPCR Ligand Engagement” (Molecules, 2021).

Target: T1, P2RY8 (Homo sapiens, UniProt Q86VZ1)
T1 construct: purchased Promega (in-house HiBiT-GPCR construct library, NanoBRET)
Assay: NanoBRET screen HiBiT-P2RY8 in HEK293
Assay type: binding
Method: Each tracer candidate was screened across the entire library of HiBiT-GPCR constructs using NanoBRET as the detection modality. As depicted in Figure 4A, the specificity of interactions was evaluated through decrease in BRET due to competitive displacement of a bound tracer by excess parental compound. Each tracer was analyzed for binding to each HiBiT-GPCR fusion in the absence and in the presence of competing parental compound. Briefly, HEK293 cells were transfected with HiBiT-GPCR constructs diluted into promoterless DNA to reduce expression and maximize translocation to the cell surface. Each tracer candidate was then screened at concentrations of 1 μM and 0.1 μM across cells expressing these fusions. Cells were treated for 1.5 h with tracer either alone or in the presence of 20 μM competing parental compound (i.e., control). BRET was measured upon addition of purified LgBiT and subsequent complementation with HiBiT genetically fused to a GPCR. The specificity of interactions was assessed through a decrease in BRET signal due to competitive displacement of the bound tracer. To further gauge the robustness of these interactions, the fold response over the control (i.e., BRETtracer/BRETcontrol) was calculated. We chose a 1.5-fold response, which translates to ≥7-fold signal over noise as the minimal threshold required to score an interaction as positive.
HiBiT-GPCR DNA constructs were diluted in 10 mM Tris pH 8 to a final concentration of 0.01 μg/μL, arrayed in 96-well plates and stored at −20 °C. For transfection, HEK293 cells were suspended in Opti-MEM (without phenol red) supplemented with 2% fetal bovine serum (Seradigm) and 100 units/mL penicillin–streptomycin (Gibco) at a final concentration of 220,000 cells/mL and dispensed into white 96-well plates at 90 μL/well. Subsequent transfections and screens were carried using an Agilent Bravo Automated Liquid Handling Platform. First, the 96-well HiBiT DNA arrays were diluted 25-fold in Opti-MEM (without serum or phenol red) to a final concentration of 0.0004 μg/μL and 20 μL of the diluted DNAs were transferred into new 96-well plates. Next, promoterless carrier DNA (1 μg/μL) was diluted 25-fold (0.04 μg/μL) and then dispensed into the diluted arrays at 20 μL/well. Following brief mixing, Viafect transfection reagent (Promega) diluted 16-fold into Opti-MEM was dispensed into the plates at 40 μL/well. After mixing by pipetting, plates were incubated for 10 min on the pipetting station deck. The DNA-transfection reagent complexes were then added to plates containing cells. To facilitate the screen, 10 μL of DNA-transfection reagent complexes were added in duplicates to the top 4 and bottom 4 rows, resulting in two identical 48-well arrays per plate. Plates with transfected cells were incubated for 18–20 h at 37 °C/5% CO2. A screen of each tracer across the entire library using two different concentrations requires duplicate plates of transfected cells. Depending on the number of tracers being screened, transfections can be scaled up using the same ratios. The next day, for each tracer, four 20× screening solutions in tracer dilution buffer (Promega) were prepared: two duplicates at final concentration of 20 μM and two duplicates at a final concentration of 2 μM. […] The four resulting solutions were diluted 4-fold in Opti-MEM without serum or phenol red to generate 5× solutions (5 µM and 0.5 µM tracer +/− 100 μM competing compound). To screen the library, a BioTek MultiFlo FX liquid dispenser was used to dispense 22.5 µL of tracer solution to the top 4 rows and 22.5 µL tracer + competing compound solution to the 4 bottom rows. Plates were briefly mixed on an orbital shaker and incubated for 1.5 h at room temperature. […] Plates were briefly mixed on an orbital shaker and incubated for 15 min to allow complementation.

T1 sequence (Q86VZ1 whole entry): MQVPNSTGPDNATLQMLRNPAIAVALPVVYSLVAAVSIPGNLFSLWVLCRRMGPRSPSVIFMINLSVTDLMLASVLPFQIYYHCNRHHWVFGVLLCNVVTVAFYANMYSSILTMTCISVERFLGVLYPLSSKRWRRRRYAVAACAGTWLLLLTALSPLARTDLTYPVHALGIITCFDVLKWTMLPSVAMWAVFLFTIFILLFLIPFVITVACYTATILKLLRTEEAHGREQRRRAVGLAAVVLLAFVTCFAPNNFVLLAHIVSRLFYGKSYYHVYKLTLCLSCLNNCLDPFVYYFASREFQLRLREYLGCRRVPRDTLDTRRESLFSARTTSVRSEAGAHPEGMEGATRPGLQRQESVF

Row | SMILES | NanoBRET Fold Response (P2RY8, tracer 0.1μM) | NanoBRET Fold Response (P2RY8, tracer 1μM) | other results
1 | O=C(CCc1ccc2n1[B-](F)(F)[N+]1=C(c3ccc[nH]3)C=CC1=C2)NCc1ccc(C(=O)NCCOCCC(=O)N[C@@H]2CC[C@@]3(O)[C@H]4Cc5ccc(O)c6c5[C@@]3(CCN4CC3CC3)[C@H]2O6)cc1 [Naltrexone-3-NB590] | 0.86 | 0.47 | –
2 | CCCn1c(=O)c2[nH]c(-c3ccc(OCC(=O)NCCNC(=O)CCOCCNC(=O)c4ccc(CNC(=O)CCc5ccc6n5[B-](F)(F)[N+]5=C(c7ccc[nH]7)C=CC5=C6)cc4)cc3)nc2n(CCC)c1=O [XAC-3-NB590] | 1.30 | 0.83 | –
3 | CC(C)N(CC[C@H](c1ccccc1)c1cc(CCNC(=O)c2ccc(CNC(=O)CCc3ccc4n3[B-](F)(F)[N+]3=C(c5ccc[nH]5)C=CC3=C4)cc2)ccc1O)C(C)C [Tolterodine-BZ-NB590] | 0.96 | 1.01 | –
4 | COc1ccc2[nH]c(-c3ccc(CNC(=O)CCOCCOCCOCCOCCNC(=O)CCc4ccc5n4[B-](F)(F)[N+]4=C(c6ccc[nH]6)C=CC4=C5)cc3)c(CCNC(C)=O)c2n1 [AzomelatoninICO9-2-NB590] | – | – | NanoBRET Fold Response (0.1μM tracer): 1.14; NanoBRET Fold Response (1μM tracer): 1.05
5 | CN1CCN(C2=Nc3cc(Cl)ccc3N(CC(=O)NCCOCCOCCOCCOCCNC(=O)CCc3ccc4n3[B-](F)(F)[N+]3=C(c5ccc[nH]5)C=CC3=C4)c3ccccc32)CC1 [Clozapine-c-2-NB590] | – | – | NanoBRET Fold Response (P2RY8, 0.1μM tracer): 1.05; NanoBRET Fold Response (P2RY8, 1μM tracer): 0.79
6 | COc1ccccc1N1CCN(CCCCN2C(=O)c3ccc(CNC(=O)CCOCCNC(=O)c4ccc(CNC(=O)CCc5ccc6n5[B-](F)(F)[N+]5=C(c7ccc[nH]7)C=CC5=C6)cc4)cc3C2=O)CC1 [NAN-190-3-NB590] | 1.21 | 1.12 | –
7 | Cc1nc2n(c(=O)c1CCN1CCC(c3noc4cc(F)ccc34)CC1)CCCC2OC(=O)NCCOCCOCCOCCOCCNC(=O)CCc1ccc2n1[B-](F)(F)[N+]1=C(c3ccc[nH]3)C=CC1=C2 (stereo not shown) [Risperidone-2-NB590] | 1.06 | 0.96 | –
8 | O=C(CCOCCOCCOCCOCCNC(=O)CCc1ccc2n1[B-](F)(F)[N+]1=C(c3ccc[nH]3)C=CC1=C2)NCCCN1CCN(C2=Nc3ccccc3Oc3ccc(Cl)cc32)CC1 [Loxapine-a-2-NB590] | 0.95 | 0.87 | –
9 | COc1ccccc1N1CCN(CCCCN2C(=O)c3ccc(CNC(=O)CCOCCOCCOCCOCCNC(=O)CCc4ccc5n4[B-](F)(F)[N+]4=C(c6ccc[nH]6)C=CC4=C5)cc3C2=O)CC1 [NAN-190-2-NB590] | 0.99 | 1.14 | –
10 | CC(C)N(CC[C@H](c1ccccc1)c1cc(CCNC(=O)CCOCCOCCOCCOCCNC(=O)CCc2ccc3n2[B-](F)(F)[N+]2=C(c4ccc[nH]4)C=CC2=C3)ccc1O)C(C)C [Tolterodine-2-NB590] | 1.06 | 1.22 | –
11 | N#CN=C(NCCCOc1cccc(CN2CCCCC2)c1)NCCNC(=O)CCOCCOCCOCCOCCNC(=O)CCc1ccc2n1[B-](F)(F)[N+]1=C(c3ccc[nH]3)C=CC1=C2 [Aminopotentidine-2-NB590] | 1.06 | 1.02 | –
12 | CCOC(=O)c1cc(C#N)c(N2CCC(C(=O)NS(=O)(=O)Cc3ccccc3/C=C/C(=O)NCCNC(=O)CCc3ccc4n3[B-](F)(F)[N+]3=C(c5ccc[nH]5)C=CC3=C4)CC2)nc1C [AZD1283-1-NB590] | – | – | NanoBRET Fold Response (P2RY8, 0.1μM): 1.56; NanoBRET Fold Response (P2RY8, 1μM): 1.89
13 | CN(C)CCC=C1c2ccccc2CCc2ccc(C(=O)NCCNC(=O)CCOCCOCCOCCOCCNC(=O)CCc3ccc4n3[B-](F)(F)[N+]3=C(c5ccc[nH]5)C=CC3=C4)cc21 [Amitriptyline-b-2-NB590] | – | – | NanoBRET Fold Response (tracer at 0.1μM, listed as amitriptyline-b-2-NB590): 0.88; NanoBRET Fold Response (tracer at 1μM, listed as amitriptyline-b-2-NB590): 1.07
14 | CN(C)CCC=C1c2ccccc2CCc2ccc(C(=O)NCCNC(=O)CCOCCOCCOCCOCCNC(=O)CCc3ccc4n3[B-](F)(F)[N+]3=C(c5ccc[nH]5)C=CC3=C4)cc21 [Amitriptyline-a-2-NB590] | – | – | NanoBRET Fold Response (tracer at 0.1μM): 1.05; NanoBRET Fold Response (tracer at 1μM): 0.90
15 | O=C(CCc1ccc2n1[B-](F)(F)[N+]1=C(c3ccc[nH]3)C=CC1=C2)NCCOCCOCCNC(=O)OCCOCCN1CCN(C2=Nc3ccccc3Sc3ccccc32)CC1 [Quetiapine-a-2-NB590] | 0.94 | 0.88 | –
16 | Cc1cc2c(s1)Nc1ccccc1N=C2N1CCN(CCCNC(=O)CCOCCOCCOCCOCCNC(=O)CCc2ccc3n2[B-](F)(F)[N+]2=C(c4ccc[nH]4)C=CC2=C3)CC1 [Olanzapine-a-2-NB590] | – | 1.13 | –
17 | CN1CCN(C2=Nc3cc(Cl)ccc3Nc3ccc(CNC(=O)CCOCCOCCOCCOCCNC(=O)CCc4ccc5n4[B-](F)(F)[N+]4=C(c6ccc[nH]6)C=CC4=C5)cc32)CC1 [Clozapine-b-2-NB590] | – | – | NanoBRET Fold Response (P2RY8, 0.1μM tracer): 0.97; NanoBRET Fold Response (P2RY8, 1μM tracer): 0.93
18 | COc1ccc2c(n1)c(CCNC(C)=O)cn2CCNC(=O)CCc1ccc2n1[B-](F)(F)[N+]1=C(c3ccc[nH]3)C=CC1=C2 [Azamelatonin-1-NB590] | – | – | NanoBRET Fold Response (0.1μM tracer): 1.30; NanoBRET Fold Response (1μM tracer): 1.30
19 | CN(CCC=C1c2ccccc2CCc2ccccc21)C(=O)CCOCCOCCOCCOCCNC(=O)CCc1ccc2n1[B-](F)(F)[N+]1=C(c3ccc[nH]3)C=CC1=C2 [Amitriptyline-e-2-NB590] | – | – | NanoBRET Fold Response (tracer at 1μM): 0.99
20 | O=C(CCc1ccc2n1[B-](F)(F)[N+]1=C(c3ccc[nH]3)C=CC1=C2)NCc1ccc(C(=O)NCCOCCOCCNCC(O)COc2cccc3ccccc23)cc1 (stereo not shown) [Propranolol-3-NB590] | – | – | NanoBRET Fold Response (P2RY8, 0.1μM): 1.11; NanoBRET Fold Response (P2RY8, 1μM): 1.00
21 | O=C(CCOCCOCCOCCOCCNC(=O)CCc1ccc2n1[B-](F)(F)[N+]1=C(c3ccc[nH]3)C=CC1=C2)NCCCN1CCN(C2=Nc3cc(Cl)ccc3Nc3ccccc32)CC1 [Clozapine-a-2-NB590] | – | – | NanoBRET Fold Response (P2RY8, 0.1μM tracer): 0.97; NanoBRET Fold Response (P2RY8, 1μM tracer): 0.96
